In PubChem BioAssay AID1963421 (Molecular Pharmacology Branch, DTP, NCI, 2024):

Tested on: 519858-162-T-J1-PDC complex spheroid growth, % test/control
Experiment: Anticancer human tumor 519858-162-T-J1-PDC patient-derived colon adenocarcinoma cell line growth inhibition [Asc]
Details: for IC50: curve of first compound; for viability, T/C: stronger effect = lower value
Outline: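 Complex spheroids combining tumor cells with HUVEC endothelial cells and human MSCs, at 37 degrees C, 5% CO2; agents tested alone or combined, half-log dilutions from at or near clinical Cmax, or 10 microM if Cmax unknown.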

[1] = second compound 0.00316 µM, first compound 0.00316 µM
[2] = second compound 0.00316 µM, first compound 0.01 µM
[3] = second compound 0.00316 µM, first compound 0.0316 µM
[4] = second compound 0.00316 µM, first compound 0.1 µM
[5] = second compound 0.00316 µM, first compound 0.316 µM
[6] = second compound 0.00316 µM, first compound 1 µM
[7] = second compound 0.01 µM, first compound 0.00316 µM
[8] = second compound 0.01 µM, first compound 0.01 µM
[9] = second compound 0.01 µM, first compound 0.0316 µM
[10] = second compound 0.01 µM, first compound 0.1 µM
[11] = second compound 0.01 µM, first compound 0.316 µM
[12] = second compound 0.01 µM, first compound 1 µM
[13] = second compound 0.0316 µM, first compound 0.00316 µM
[14] = second compound 0.0316 µM, first compound 0.01 µM
[15] = second compound 0.0316 µM, first compound 0.0316 µM
[16] = second compound 0.0316 µM, first compound 0.1 µM
[17] = second compound 0.0316 µM, first compound 0.316 µM
[18] = second compound 0.0316 µM, first compound 1 µM
[19] = second compound 0.1 µM, first compound 0.00316 µM
[20] = second compound 0.1 µM, first compound 0.01 µM
[21] = second compound 0.1 µM, first compound 0.0316 µM
[22] = second compound 0.1 µM, first compound 0.1 µM
[23] = second compound 0.1 µM, first compound 0.316 µM
[24] = second compound 0.1 µM, first compound 1 µM
[25] = second compound 0.316 µM, first compound 0.00316 µM
[26] = second compound 0.316 µM, first compound 0.01 µM
[27] = second compound 0.316 µM, first compound 0.0316 µM
[28] = second compound 0.316 µM, first compound 0.1 µM
[29] = second compound 0.316 µM, first compound 0.316 µM
[30] = second compound 0.316 µM, first compound 1 µM
[31] = second compound 1 µM, first compound 0.00316 µM
[32] = second compound 1 µM, first compound 0.01 µM
[33] = second compound 1 µM, first compound 0.0316 µM
[34] = second compound 1 µM, first compound 0.1 µM
[35] = second compound 1 µM, first compound 0.316 µM
[36] = second compound 1 µM, first compound 1 µM
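Further: seven day drug exposure begun three days after spheroid seeding.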
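Wherever viability, T/C is given: 100% = DMSO vehicle wells and lower values mean less viable spheroid.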

With `CCN1CCN(Cc2ccc(Nc3ncc(F)c(-c4cc(F)c5nc(C)n(C(C)C)c5c4)n3)nc2)CC1` + CNC(C)C(=O)NC1CN(S(=O)(=O)c2cccc(S(=O)(=O)N3CCC4CCC(C(=O)NC(c5ccccc5)c5ccccc5)N4C(=O)C(NC(=O)C(C)NC)C3)c2)CCC2CCC(C(=O)NC(c3ccccc3)c3ccccc3)N2C1=O the IC50 (second compound 0.00316 µM) was greater than 1000 nM, the IC50 (second compound 0.01 µM) was greater than 1000 nM and the IC50 (second compound 0.0316 µM) was greater than 1000 nM. The IC50 (second compound 0.1 µM) was greater than 1000 nM, the IC50 (second compound 0.316 µM) was greater than 1000 nM and the IC50 (second compound 1 µM) was greater than 1000 nM. For the same compound, the viability, T/C [1] was 98%, the viability, T/C [2] was 99.6% and the viability, T/C [3] was 127%. For the same compound, the viability, T/C [4] was 115%, the viability, T/C [5] was 84.4% and the viability, T/C [6] was 70%. The viability, T/C [7] was 108%, the viability, T/C [8] was 107% and the viability, T/C [9] was 95.1%. The viability, T/C [10] was 64.7%, the viability, T/C [11] was 79.1% and the viability, T/C [12] was 93%. It also gave a viability, T/C [13] of 116%, a viability, T/C [14] of 112% and a viability, T/C [15] of 94.8%. The viability, T/C [16] was 96.6%, the viability, T/C [17] was 86.4% and the viability, T/C [18] was 77.2%. For the same compound, the viability, T/C [19] was 128%, the viability, T/C [20] was 120% and the viability, T/C [21] was 106%. For the same compound, the viability, T/C [22] was 89.3%, the viability, T/C [23] was 84.2% and the viability, T/C [24] was 76.3%. For the same compound, the viability, T/C [25] was 77%, the viability, T/C [26] was 91.7% and the viability, T/C [27] was 120%. It also gave a viability, T/C [28] of 67.6%, a viability, T/C [29] of 47.6% and a viability, T/C [30] of 71.7%. The viability, T/C [31] was 115%, the viability, T/C [32] was 117% and the viability, T/C [33] was 107%. For the same compound, the viability, T/C [34] was 80.1%, the viability, T/C [35] was 77.9% and the viability, T/C [36] was 83.4%.

With `Cn1ncnc1[C@H]1c2n[nH]c(=O)c3cc(F)cc(c23)N[C@@H]1c1ccc(F)cc1` + CNC(C)C(=O)NC1CN(S(=O)(=O)c2cccc(S(=O)(=O)N3CCC4CCC(C(=O)NC(c5ccccc5)c5ccccc5)N4C(=O)C(NC(=O)C(C)NC)C3)c2)CCC2CCC(C(=O)NC(c3ccccc3)c3ccccc3)N2C1=O the IC50 (second compound 0.00316 µM) was greater than 100 nM, the IC50 (second compound 0.01 µM) was greater than 100 nM and the IC50 (second compound 0.0316 µM) was greater than 100 nM. It also gave an IC50 (second compound 0.1 µM) greater than 100 nM, an IC50 (second compound 0.316 µM) greater than 100 nM and an IC50 (second compound 1 µM) greater than 100 nM. It also gave a viability, T/C (second compound 0.00316 µM, first compound 0.000316 µM) of 71.1%, a viability, T/C (second compound 0.00316 µM, first compound 0.001 µM) of 64.9% and a viability, T/C [1] of 59.8%. The viability, T/C [2] was 62.1%, the viability, T/C [3] was 60.9% and the viability, T/C [4] was 69.1%. For the same compound, the viability, T/C (second compound 0.01 µM, first compound 0.000316 µM) was 94.7%, the viability, T/C (second compound 0.01 µM, first compound 0.001 µM) was 94.5% and the viability, T/C [7] was 113%. It also gave a viability, T/C [8] of 86.8%, a viability, T/C [9] of 103% and a viability, T/C [10] of 78.4%. It also gave a viability, T/C (second compound 0.0316 µM, first compound 0.000316 µM) of 103%, a viability, T/C (second compound 0.0316 µM, first compound 0.001 µM) of 83% and a viability, T/C [13] of 90.3%. It also gave a viability, T/C [14] of 87.5%, a viability, T/C [15] of 102% and a viability, T/C [16] of 77.6%. The viability, T/C (second compound 0.1 µM, first compound 0.000316 µM) was 70.6%, the viability, T/C (second compound 0.1 µM, first compound 0.001 µM) was 78.3% and the viability, T/C [19] was 83.4%. For the same compound, the viability, T/C [20] was 107%, the viability, T/C [21] was 80.9% and the viability, T/C [22] was 97.5%. For the same compound, the viability, T/C (second compound 0.316 µM, first compound 0.000316 µM) was 83.7%, the viability, T/C (second compound 0.316 µM, first compound 0.001 µM) was 99.3% and the viability, T/C [25] was 89.4%. It also gave a viability, T/C [26] of 97%, a viability, T/C [27] of 64.3% and a viability, T/C [28] of 83.6%. It also gave a viability, T/C (second compound 1 µM, first compound 0.000316 µM) of 92.6%, a viability, T/C (second compound 1 µM, first compound 0.001 µM) of 76.3% and a viability, T/C [31] of 83.3%. It also gave a viability, T/C [32] of 71.3%, a viability, T/C [33] of 90.6% and a viability, T/C [34] of 78.1%.

For `O=C(c1ccc(F)c(F)c1Nc1ccc(I)cc1F)N1CC(O)([C@@H]2CCCCN2)C1` + CNC(C)C(=O)NC1CN(S(=O)(=O)c2cccc(S(=O)(=O)N3CCC4CCC(C(=O)NC(c5ccccc5)c5ccccc5)N4C(=O)C(NC(=O)C(C)NC)C3)c2)CCC2CCC(C(=O)NC(c3ccccc3)c3ccccc3)N2C1=O, the IC50 (second compound 0.00316 µM) was 316 nM, the IC50 (second compound 0.01 µM) was 224 nM and the IC50 (second compound 0.0316 µM) was 284 nM. It also gave an IC50 (second compound 0.1 µM) of 241 nM, an IC50 (second compound 0.316 µM) of 254 nM and an IC50 (second compound 1 µM) of 268 nM. It also gave a viability, T/C [1] of 119%, a viability, T/C [2] of 133% and a viability, T/C [3] of 95.9%. For the same compound, the viability, T/C [4] was 111%, the viability, T/C [5] was 49.7% and the viability, T/C [6] was 13.8%. It also gave a viability, T/C [7] of 93.9%, a viability, T/C [8] of 112% and a viability, T/C [9] of 74.7%. It also gave a viability, T/C [10] of 86.2%, a viability, T/C [11] of 34.6% and a viability, T/C [12] of 18.8%. The viability, T/C [13] was 121%, the viability, T/C [14] was 107% and the viability, T/C [15] was 79.7%. For the same compound, the viability, T/C [16] was 101%, the viability, T/C [17] was 44.2% and the viability, T/C [18] was 14.3%. It also gave a viability, T/C [19] of 99.4%, a viability, T/C [20] of 86.4% and a viability, T/C [21] of 107%. For the same compound, the viability, T/C [22] was 84.5%, the viability, T/C [23] was 39.2% and the viability, T/C [24] was 13.5%. It also gave a viability, T/C [25] of 80.6%, a viability, T/C [26] of 122% and a viability, T/C [27] of 86.8%. The viability, T/C [28] was 79.2%, the viability, T/C [29] was 43.5% and the viability, T/C [30] was 16%. The viability, T/C [31] was 77.5%, the viability, T/C [32] was 89.2% and the viability, T/C [33] was 117%. The viability, T/C [34] was 79.7%, the viability, T/C [35] was 45.4% and the viability, T/C [36] was 18.6%.
